Reference: patent publication US20250163122A1, “COMPOSITIONS AND METHODS FOR TREATING AIRWAY MUCUS DYSFUNCTION” (BOARD OF REGENTS, THE UNIVERSITY OF TEXAS SYSTEM, priority 2022, published 2025)
Where a SMILES comes first, the peptide text is derived from it. Bridges are numbered along the chain shown (N, C = ends). [ ]: non-standard residue; d: D form. S5 = C=CCCC[C@](C)(N)C(=O)O

Columns and labels:
neuronal SNAREs and Syt1 [1] = assay: Single vesicle content mixing assay, neuronal SNAREs and Syt1; format: biochemical; conditions: 10 μM peptide, raw count; for Ca2+ triggered fusion events: 500 μM Ca2+
Text: For single vesicle content mixing assay, the lipid composition of the SV, SG, VAMP2, or VAMP8 vesicles was phosphatidylcholine (PC) (48%), phosphatidylethanolamine (PE) (20%), phosphatidylserine (PS) (12%), and cholesterol (20%); for both the neuronal and airway PM vesicles the lipid composition was Brain Total Lipid Extract supplemented 3.5 mol % PIP2, and 0.1 mol % biotinylated phosphatidylethanolamine (PE).
The reconstitution method for neuronal PM and SV vesicles was described in detail previously (see Lai et al., 2017; Kyoung et al., 2011; and Lai et al., 2014). The same methods were used for airway PM, SG, VAMP2, and VAMP8 vesicles. Dried lipid films were dissolved in 110 mM OG buffer containing purified proteins at protein-to-lipid ratios of 1:200 for VAMP2 and Stx1A for SV and neuronal PM vesicles, respectively (or 1:200 for VAMP8 and Stx3 for SG and airway PM vesicles, respectively), and 1:800 for Syt1 for SV vesicles (or 1:1200 for Syt2 for SG vesicles).
(§1) A 3-5 fold excess of SNAP-25A or SNAP-23 (with respect to Stx1A or Stx3) and 3.5 mol % PIP2 were added to the protein-lipid mixture for neuronal or airway PM vesicles. […] For the preparation of SV, SG, VAMP2, or VAMP8 vesicles for single vesicle content mixing assay, 50 mM sulforhodamine B (Thermo Fisher Scientific) was added to the protein-lipid mixture. The vesicles subsequently formed during size exclusion chromatography using a Sepharose CL-4B column, packed under near constant pressure by gravity with a peristaltic pump (GE Healthcare) in a 5.5 ml column with a ˜5 ml bed volume that was equilibrated with buffer V (20 mM HEPES, pH 7.4, 90 mM NaCl) supplemented with 20 μM EGTA and 0.1% 2-mercaptoethanol. The eluent was subjected to dialysis into 21 of detergent-free buffer V supplemented with 20 μM EGTA, 0.1% 2-mercaptoethanol, 5 g of Bio-beads SM2 (Bio-Rad) and 0.8 g/L Chelex 100 resin (Bio-Rad). After 4 hours, the buffer was exchanged with 21 of fresh buffer V supplemented with 20 μM EGTA, 0.1% 2-mercaptoethanol and Bio-beads, and the dialysis continued for another 12 h (overnight). […] For ensemble lipid mixing assay, the reconstitution method is the same as that for the single vesicle content mixing assay, except that 50 mM sulforhodamine B was omitted for all the steps.
Single vesicle content mixing experiments. All single vesicle fusion and single molecule experiments were performed on a prism-type total internal reflection fluorescence (TIRF) microscope using 532 nm (green) laser (CrystaLaser) excitation. Two observation channels were created by a 640 nm single-edge dichroic beamsplitter (FF640-FDi01-25x36, Shemrock): one channel was used for the fluorescence emission intensity of the content dyes and the other channel for that of the Cy5 dye that are part of the injected Ca^2+-solution. The two channels were recorded on two adjacent rectangular areas (45×90 m^2) of a charge-coupled device (CCD) camera (iXon+DV 897E, Andor Technology). The imaging data were recorded with the smCamera software developed by Taekjip Ha, Johns Hopkins University, Baltimore.
Flow chambers were assembled by creating a “sandwich” consisting of a quartz slide and a glass coverslip that were both coated with polyethylene glycol (PEG) molecules consisting 0.1% (w/v) biotinylated-PEG except when stated otherwise, and using double-sided tape to create up to five flow-chambers.
The single vesicle content mixing assay described in Lai et al. (2014) was used to monitor vesicle-vesicle association, Ca^2+-independent, and Ca^2+-triggered fusion. The surface of the quartz slides was passivated by coating the surface with polyethylene glycol (PEG) molecules which alleviated non-specific binding of vesicles. The same protocol and quality controls (surface coverage and non-specific binding) were used as described previously (Kyoung et al., 2011; Kyoung et al., 2012) except that PEG-SVA (Laysan Bio) instead of mPEG-SCM (Laysan Bio) was used since it has a longer half-life. […]

neuronal SNAREs and Syt1 [2] = assay: Ensemble lipid mixing assay, neuronal PM and SV vesicles; format: biochemical; conditions: for effect on ensemble lipid mixing: with or without Ca2+, peptide concentration-dependent
Text: Vesicle reconstitution. For the ensemble lipid mixing assay, the lipid composition of the SV vesicles was phosphatidylcholine (PC) (46%), phosphatidylethanolamine (PE) (20%), phosphatidylserine (PS) (12%), cholesterol (20%), and 1,1′-dioctadecyl-3,3,3′,3′-tetramethylindodicarbocyanine perchlorate (DiD) (Invitrogen) (2%); for the both neuronal and airway PM vesicles the lipid composition was Brain Total Lipid Extract supplemented 3.5 mol % PIP2, 0.1 mol % biotinylated phosphatidylethanolamine (PE) and 1,1′-dioctadecyl-3,3,3′,3′-tetramethylindocarbocyanine perchlorate (DiI) (Invitrogen). All the lipids are from Avanti Polar Lipids.
as §1
Bulk lipid mixing experiments with neuronal synaptic proteins. Protein-reconstituted neuronal PM and SV vesicles were mixed at a molar ratio of 1:1, both at 0.1 mM lipid concentration. Lipid mixing is measured by monitoring the fluorescent emission (670 nm) of the DiD dyes in the SV vesicles by FRET using 530 nm laser light excitation of the DiI dyes in neuronal PM vesicles. The fluorescence intensity was monitored in two channels at 570 nm and 670 nm, respectively. Fluorescence changes were recorded with a Varian Cary Eclipse model fluorescence spectrophotometer using a quartz cell of 100 μl with a 5 mm path length. All measurements were performed at 35° C.

| Molecule | Ca2+ triggered fusion events (neuronal SNAREs and Syt1 [1]) | Ca2+ independent fusion events (neuronal SNAREs and Syt1 [1]) | effect on ensemble lipid mixing (neuronal SNAREs and Syt1 [2]) | effect on Ca2+-triggered ensemble lipid mixing (neuronal SNAREs and Syt1 [2]) | effect on Ca2+-independent ensemble lipid mixing (neuronal SNAREs and Syt1 [2]; 10 μM and 100 μM peptide) |
| --- | --- | --- | --- | --- | --- |
| Ac-SKDA(S5)IRT(S5)VM(S5)DEQ(S5)EQL-amide (Ac-SKDA[S5]IRT[S5]VM[S5]DEQ[S5]EQL-NH2; staple 12-16, 5-9; SMILES CC[C@H](C)[C@@H]1NC(=O)[C@@](C)(NC(=O)[C@H](C)NC(=O)[C@H](CC(=O)O)NC(=O)[C@H](CCCCN)NC(=O)[C@H](CO)NC(C)=O)CCCC=CCCC[C@@](C)(C(=O)N[C@H](C(=O)N[C@@H](CCSC)C(=O)N[C@@]2(C)CCCC=CCCC[C@@](C)(C(=O)N[C@@H](CCC(=O)O)C(=O)N[C@@H](CCC(N)=O)C(=O)N[C@@H](CC(C)C)C(N)=O)NC(=O)[C@H](CCC(N)=O)NC(=O)[C@H](CCC(=O)O)NC(=O)[C@H](CC(=O)O)NC2=O)C(C)C)NC(=O)[C@H]([C@@H](C)O)NC(=O)[C@H](CCCNC(=N)N)NC1=O) [SP4] | 210 | 261 | substantially inhibited |  |  |
| Ac-SKD(S5)GIR(S5)LV(S5)LDE(S5)GEQL-amide (Ac-SKD[S5]GIR[S5]LV[S5]LDE[S5]GEQL-NH2; staple 11-15, 4-8; SMILES CC[C@H](C)[C@@H]1NC(=O)CNC(=O)[C@@](C)(NC(=O)[C@H](CC(=O)O)NC(=O)[C@H](CCCCN)NC(=O)[C@H](CO)NC(C)=O)CCCC=CCCC[C@@](C)(C(=O)N[C@@H](CC(C)C)C(=O)N[C@H](C(=O)N[C@@]2(C)CCCC=CCCC[C@@](C)(C(=O)NCC(=O)N[C@@H](CCC(=O)O)C(=O)N[C@@H](CCC(N)=O)C(=O)N[C@@H](CC(C)C)C(N)=O)NC(=O)[C@H](CCC(=O)O)NC(=O)[C@H](CC(=O)O)NC(=O)[C@H](CC(C)C)NC2=O)C(C)C)NC(=O)[C@H](CCCNC(=N)N)NC1=O) [SP10] | 495 | 263 | substantially inhibited |  |  |
| CC[C@H](C)[C@H](NC(=O)[C@]1(C)CCCC=CCCC[C@](C)(NC(=O)[C@H](CCC(=O)O)NC(=O)[C@H](CCC(=O)O)NC(C)=O)C(=O)N[C@@H](CCCCN)C(=O)N[C@@H](CC(=O)O)C(=O)N[C@@H](C)C(=O)N1)C(=O)N[C@@H](CCCNC(=N)N)C(=O)N[C@@]1(C)CCCC=CCCC[C@@](C)(C(=O)N[C@@H](CC(=O)O)C(=O)N[C@@H](CCC(=O)O)C(=O)N[C@@H](CCC(N)=O)C(=O)N[C@@H](CS)C(N)=O)NC(=O)[C@H](CCSC)NC(=O)[C@H](C(C)C)NC(=O)[C@H](CC(C)C)NC1=O [SP9, Ac-EE(S5)KDA(S5)IR(S5)LVM(S5)DEQC-amide] (Ac-EE[S5]KDA[S5]IR[S5]LVM[S5]DEQC-NH2; staple 3-7, 10-14) | 272 | 165 | substantially inhibited |  |  |
| Ac-SKD(S5)GIR(S5)LVMLDE(S5)GEQ(S5)DR-amide (Ac-SKD[S5]GIR[S5]LVMLDE[S5]GEQ[S5]DR-NH2; staple 15-19, 4-8; SMILES CC[C@H](C)[C@@H]1NC(=O)CNC(=O)[C@@](C)(NC(=O)[C@H](CC(=O)O)NC(=O)[C@H](CCCCN)NC(=O)[C@H](CO)NC(C)=O)CCCC=CCCC[C@@](C)(C(=O)N[C@@H](CC(C)C)C(=O)N[C@H](C(=O)N[C@@H](CCSC)C(=O)N[C@@H](CC(C)C)C(=O)N[C@@H](CC(=O)O)C(=O)N[C@@H](CCC(=O)O)C(=O)N[C@@]2(C)CCCC=CCCC[C@@](C)(C(=O)N[C@@H](CC(=O)O)C(=O)N[C@@H](CCCNC(=N)N)C(N)=O)NC(=O)[C@H](CCC(N)=O)NC(=O)[C@H](CCC(=O)O)NC(=O)CNC2=O)C(C)C)NC(=O)[C@H](CCCNC(=N)N)NC1=O) [SP1] | 210 | 235 | substantially inhibited |  |  |
| EESKDAGIRTLVMLDEQGEQLD [Peptide P0, non-stapled SNAP-25A fragment used as a control, reference compound] | 591 | 493 |  | little effect | little effect |
